# Patent publication US20110184029A1, “PYRIDONE DERIVATIVES AS NON-NUCLEOSIDE REVERSE TRANSCRIPTASE INHIBITORS” (KOREA RESEARCH INSTITUTE OF CHEMICAL TECHNOLOGY, priority 2008, published 2011)
# How the values were obtained:
# HIV-IIIb = test: Antiviral assay in MT-2 / MT-4 cells infected with HIV-IIIb (CellTiter-Glo readout); format: cell-based; conditions: MT4, 120 h, 5 days, MT-2 or MT-4 cells not given
# Experimental: For the antiviral assay utilizing MT-2 cells, 50 μl of 2× test concentration of 5-fold serially diluted compound in culture medium with 10% FBS was added to each well of a 96-well plate (9 concentrations) in triplicate. MT-2 cells were infected with HIV-IIIb at a multiplicity of infection (m.o.i) of 0.01 for 3 hours. Fifty microliters of infected cell suspension in culture medium with 10% FBS (˜1.5×10^4 cells) was then added to each well containing 50 μl of diluted compound. The plates were then incubated at 37° C. for 5 days. For the antiviral assay utilizing MT-4 cells, 20 μl of 2× test concentration of 5-fold serially diluted compound in culture medium with 10% FBS was added to each well of a 384-well plate (7 concentrations) in triplicate. MT-4 cells were next mixed with HIV-IIIb at an m.o.i. of 0.1 and 20 μl of virus/cell mixture (˜2000 cells) was immediately added to each well containing 20 μl of diluted compound. The plates were then incubated at 37° C. for 5 days. After 5 days of incubation, 100 μl of CellTiter-Glo™ Reagent (catalog #G7571, Promega Biosciences, Inc., Madison, Wis.) was added to each well containing MT-2 cells and 40 μl to each well containing MT-4 cells. Cell lysis was carried out by incubation at room temperature for 10 min and chemiluminescence was read.
# [1] = Cytotoxicity assessment in uninfected MT-2 / MT-4 cells; format: cell-based; conditions: human, MT-2 or MT-4 cells not given
# Experimental: For compound cytotoxicity assessment in MT-2 cells, the protocol was identical to that of the antiviral assay in MT-2 cells, except that uninfected cells and a 3-fold serial dilution of compounds were used. For cytotoxicity assessment in MT-4 cells, the protocol is identical to that of the antiviral assay in MT-4 cells, except that no virus was added. Cytotoxicity is expressed as CC50.
melting point [°C],EC50 (HIV-IIIb) [nM],SMILES,CC50 at 5 days [1] [nM]
222 to 224,< 100,"Cc1cc(C#N)cc(C(=O)c2c(CC3CC3)c(C)[nH]c(=O)c2C(C)C)c1 [Example 1, 3-(5-Cyclopropylmethyl-3-isopropyl-6-methyl-2-oxo-1,2-dihydro-pyridine-4-carbonyl)-5-methyl-benzonitrile]",
237 to 238,< 100,"Cc1[nH]c(=O)c(C(C)C)c(C(=O)c2cc(Cl)cc(C#N)c2)c1CC1CC1 [Example 3, 3-Chloro-5-(5-cyclopropylmethyl-3-isopropyl-6-methyl-2-oxo-1,2-dihydro-pyridine-4-carbonyl)-benzonitrile]",
,< 100,"Cc1cc(C#N)cc([S+]([O-])c2c(CC3CC3)c(C)[nH]c(=O)c2C(C)C)c1 (stereo not shown) [Example 8, 3-(5-(cyclopropylmethyl)-3-isopropyl-6-methyl-2-oxo-1,2-dihydropyridin-4-ylsulfinyl)-5-methylbenzonitrile]",
,< 100,"Cc1[nH]c(=O)c(C(C)C)c(C(=O)c2cc(C#N)cc(C(N)=O)c2)c1CC1CC1 [Example 10, 3-Cyano-5-(5-cyclopropylmethyl-3-isopropyl-6-methyl-2-oxo-1,2-dihydro-pyridine-4-carbonyl)-benzamide]",
,< 100,"Cc1cc(C#CCO)cc(C(=O)c2c(CC3CC3)c(C)[nH]c(=O)c2C(C)C)c1 [Example 11, 5-(cyclopropylmethyl)-4-(3-(3-hydroxyprop-1-ynyl)-5-methylbenzoyl)-3-isopropyl-6-methylpyridin-2 (1H)-one]",
,< 100,"Cc1cc(C#N)cc(C(=O)c2c(CC3CC3)c(CO)[nH]c(=O)c2C(C)C)c1 [Example 13, 3-(5-Cyclopropylmethyl-6-hydroxymethyl-3-isopropyl-2-oxo-1,2-dihydro-pyridine-4-carbonyl)-5-methyl-benzonitrile]",

# The next lines start with the molecule.
SMILES,melting point [°C],EC50 (HIV-IIIb) [nM],CC50 at 5 days [1] [nM]
"Cc1[nH]c(=O)c(C(C)C)c(C(=O)c2cc(C#N)cc(C#N)c2)c1CC1CC1 [Example 2, 5-(5-Cyclopropylmethyl-3-isopropyl-6-methyl-2-oxo-1,2-dihydro-pyridine-4-carbonyl)-isophthalonitrile]",266 to 267,< 100,
"Cc1cc(C#N)cc(C(=O)c2c(CC3(CO)CC3)c(C)[nH]c(=O)c2C(C)C)c1 [Example 5, 3-[5-(1-Hydroxymethyl-cyclopropylmethyl)-3-isopropyl-6-methyl-2-oxo-1,2-dihydro-pyridine-4-carbonyl]-5-methyl-benzonitrile]",,< 100,
"Cc1[nH]c(=O)c(C(C)C)c([S+]([O-])c2cc(C#N)cc(C#N)c2)c1CC1CC1 (stereo not shown) [Example 6, 5-(5-Cyclopropylmethyl-3-isopropyl-6-methyl-2-oxo-1,2-dihydro-pyridin-4-sulfinyl)-isophthalonitrile]",,< 100,> 100000
"Cc1cc(C#N)cc(Sc2c(CC3CC3)c(C)[nH]c(=O)c2C(C)C)c1 [Example 7, 3-(5-(cyclopropylmethyl)-3-isopropyl-6-methyl-2-oxo-1,2-dihydropyridin-4-ylthio)-5-methylbenzonitrile]",,< 100,
"Cc1cc(C#N)cc(S(=O)(=O)c2c(CC3CC3)c(C)[nH]c(=O)c2C(C)C)c1 [Example 9, 3-(5-Cyclopropylmethyl-3-isopropyl-6-methyl-2-oxo-1,2-dihydro-pyridine-4-sulfonyl)-5-methyl-benzonitrile]",,< 100,> 69000
"Cc1[nH]c(=O)c(C(C)C)c(C(=O)c2cc(C#N)cc(C#CCO)c2)c1CC1CC1 [Example 12, 3-(5-Cyclopropylmethyl-3-isopropyl-6-methyl-2-oxo-1,2-dihydro-pyridine-4-carbonyl)-5-(3-hydroxy-prop-1-ynyl)-benzonitrile]",,< 100,
"CC(C)c1c(C(=O)c2cc(C#N)cc(C#N)c2)c(CC2CC2)c(CO)[nH]c1=O [Example 14, 5-(5-Cyclopropylmethyl-6-hydroxymethyl-3-isopropyl-2-oxo-1,2-dihydro-pyridine-4-carbonyl)-isophthalonitrile]",,< 100,
"Cc1cc(C#N)cc(C(=O)c2c(CC3CC3)c(CC#N)[nH]c(=O)c2C(C)C)c1 [Example 15, 3-(6-Cyanomethyl-5-cyclopropylmethyl-3-isopropyl-2-oxo-1,2-dihydro-pyridine-4-carbonyl)-5-methyl-benzonitrile]",,< 100,
